Measured values published in US5382596A, “Substituted 2-aminotetralins” (priority 1993, dated 1995).
Counter-ions that a name gives are not always drawn. Like-named read-outs stand apart in the source and are kept apart here.

How the values were obtained:
[1] = target: Dopamine D1 receptor (Bos taurus, UniProt Q95136); experiment: biochemical; assay type: binding, bovine; details: bovine caudate membranes, 3H-SCH23390, 37° C., 15 min; read-out: D1 K1
Experimental: (§1) Membranes were prepared using a Brinkmann Polytron and collected by centrifugation. Membrane sources were bovine caudate (D2,D1) or rat cortex (α2). The membranes were washed, resuspended, and incubated at 37° C. for 30 min. in either the presence (rat cortex) of 1 μ/ml adenosine deaminase or absence (bovine caudate) of 0.1 μ/ml adenosine deaminase. Membranes were centrifuged, washed once and frozen at -70° C. until used. Immediately before use, the membranes were thawed, washed once, and resuspended to a final concentration of 0.5-2 mg/ml. Assays were initiated by addition of membranes. For D2 and D1 assays, the radioligands and conditions used were ^3 H-Spiperone (RT, 75 min.) and ^3 H-SCH23390 (37° C., 15 min.), respectively. For α2 assays, ^3 H-PAC (RT, 30 min.) was used Assays were terminated by filtration using a Brandel cell harvester over Whatman GF/B filters that had been pretreated with 0.1% polyethylenimine. […]

[2] = target: Dopamine D2 receptor (Bos taurus, UniProt P20288); experiment: biochemical; assay type: binding, bovine; details: for Ki: bovine caudate membranes, 3H-Spiperone, RT, 75 min, read-out: D2 K1
Experimental: as §1

[3] = target: dopamine D2 receptor (Mus musculus, UniProt P61168); experiment: biochemical; assay type: biochemical; details: for EC50: concentration that produces 50% of the maximal inhibition of twitch, mouse vas deferens, read-out: D2 A50
Experimental: Vasa deferentia from male BALB/C mice weighing approximately 30 g were removed and placed in isolated organ baths containing magnesium-free modified Krebs-Henseleit solution which was gassed with 95% O2 and 5% CO2 and maintained at 37° C. Tissues were set up under resting tension of 0.5 g and stimulated electrically at 60 volts, 0.1 Hz and 1 msec duration to produce a series of twitch responses. Tissues were pretreated with propranolol (1 μM) to block β-adrenoceptors, idazoxan (3 μM) to block α2 -adrenoceptors receptors, and ascorbic acid (100 μM) for 60 min before the addition of test compound.

[4] = target: T1, adrenergic α2 receptor (Rattus norvegicus, UniProt P22909); experiment: Adrenergic α2 in vitro functional test (rat vas deferens, inhibition of twitch); assay type: biochemical
T1 sequence (P22909 1-465): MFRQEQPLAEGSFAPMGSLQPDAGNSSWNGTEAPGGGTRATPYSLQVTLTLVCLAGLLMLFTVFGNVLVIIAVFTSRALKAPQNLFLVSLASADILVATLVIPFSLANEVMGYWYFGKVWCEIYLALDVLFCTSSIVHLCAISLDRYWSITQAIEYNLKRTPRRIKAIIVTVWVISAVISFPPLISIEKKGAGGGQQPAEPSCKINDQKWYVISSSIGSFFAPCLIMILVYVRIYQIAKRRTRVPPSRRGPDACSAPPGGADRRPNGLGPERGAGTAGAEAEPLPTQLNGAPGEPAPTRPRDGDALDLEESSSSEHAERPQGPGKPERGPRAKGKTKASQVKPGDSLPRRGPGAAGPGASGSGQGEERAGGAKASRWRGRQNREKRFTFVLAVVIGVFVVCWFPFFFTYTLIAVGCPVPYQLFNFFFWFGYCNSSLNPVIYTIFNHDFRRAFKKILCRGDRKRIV
Experimental: Vasa deferentia from male Sprague-Dawley rats weighing between 150-250 g were removed and placed in isolated organ baths containing Krebs-Henseleitsolution under a resting tension of 1 g. All other set up conditions were identical to those used for the mouse was deferens. Tissues were pretreated with propranolol (1 μM), ascorbic acid (100 μM) and the α1 -adrenergic antagonist prazosin (0.3 or 1 μM) for 60 min before the addition of test compound.

[5] = test system: denervated supersensitive postsynaptic dopamine receptors; experiment: In vivo functional test: contralateral circling in rats with unilateral 6-hydroxydopamine lesions of the substantia nigra; parameters: species or system rat; details: for ED50: contralateral circling, rats, unilateral 6-hydroxydopamine lesion
Source text: Dopamine agonists produce contralateral circling behavior in rats in which unilateral lesions of the substantial nigra are made by prior injection of 6-hydroxydopamine. The circling is thought to be mediated by stimulation of denervated supersensitive postsynaptic dopamine receptors (Marshall and Ungerstedt, 1977, Eur. J. Pharmacol., 41:361-367).

[6] = concentration that produces 50% of the maximal inhibition of twitch, rat vas deferens, read-out: a2 A50

Sequence of Dopamine D2 receptor (P20288 whole entry): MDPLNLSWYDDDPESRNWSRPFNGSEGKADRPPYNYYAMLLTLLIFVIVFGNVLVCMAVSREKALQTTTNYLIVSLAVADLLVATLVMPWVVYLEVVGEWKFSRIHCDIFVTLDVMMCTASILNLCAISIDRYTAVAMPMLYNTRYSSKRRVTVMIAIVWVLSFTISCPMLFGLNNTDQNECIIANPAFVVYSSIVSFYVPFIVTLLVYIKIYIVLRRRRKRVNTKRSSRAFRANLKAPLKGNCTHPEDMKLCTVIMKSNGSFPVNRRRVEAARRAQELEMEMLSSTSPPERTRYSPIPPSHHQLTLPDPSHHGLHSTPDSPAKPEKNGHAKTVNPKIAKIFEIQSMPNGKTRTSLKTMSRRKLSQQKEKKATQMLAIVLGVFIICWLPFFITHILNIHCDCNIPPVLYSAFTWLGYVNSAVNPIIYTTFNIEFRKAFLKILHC
Sequence of Dopamine D1 receptor (Q95136 whole entry): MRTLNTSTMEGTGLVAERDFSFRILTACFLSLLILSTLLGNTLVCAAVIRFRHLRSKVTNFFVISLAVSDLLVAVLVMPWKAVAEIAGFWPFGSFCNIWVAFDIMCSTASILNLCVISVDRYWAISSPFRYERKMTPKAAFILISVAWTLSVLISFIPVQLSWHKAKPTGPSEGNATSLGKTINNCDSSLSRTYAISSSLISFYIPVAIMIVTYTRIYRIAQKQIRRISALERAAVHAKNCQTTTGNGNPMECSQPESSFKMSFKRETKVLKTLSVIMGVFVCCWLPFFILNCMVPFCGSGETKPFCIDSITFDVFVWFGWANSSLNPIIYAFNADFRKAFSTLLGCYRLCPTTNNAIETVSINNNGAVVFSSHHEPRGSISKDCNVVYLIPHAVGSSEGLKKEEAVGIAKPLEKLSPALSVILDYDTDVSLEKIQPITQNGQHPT
Sequence of dopamine D2 receptor (P61168 whole entry): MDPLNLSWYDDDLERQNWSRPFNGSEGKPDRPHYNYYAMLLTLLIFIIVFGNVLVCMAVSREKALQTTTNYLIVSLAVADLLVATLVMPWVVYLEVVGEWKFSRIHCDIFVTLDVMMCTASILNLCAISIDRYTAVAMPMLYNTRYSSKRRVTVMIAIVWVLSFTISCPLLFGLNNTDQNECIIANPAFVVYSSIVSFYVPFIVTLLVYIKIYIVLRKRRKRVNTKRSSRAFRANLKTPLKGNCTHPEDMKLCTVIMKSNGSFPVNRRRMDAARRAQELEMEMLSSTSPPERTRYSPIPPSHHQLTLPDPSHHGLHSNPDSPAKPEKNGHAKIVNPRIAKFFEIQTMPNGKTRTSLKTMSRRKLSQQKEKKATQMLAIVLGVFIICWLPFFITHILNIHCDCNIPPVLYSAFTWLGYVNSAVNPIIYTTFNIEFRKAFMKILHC

| Ki [1] [nM] | Selectivity Ratio (D1 K1/D2 K1) [2] | Ki [2] [nM] | Specificity Ratio (a2 A50/D2 A50) [3] | EC50 [3] [nM] | EC50 [4, 6] [nM] | dopamine D2 receptor affinity (in words) [2] | D2 receptor selectivity (in words) ([2]; D2 vs. D1) | D2 receptor specificity (in words) ([3]; D2 vs. α2) | Compound | ED50 [5] [µmol/kg] | EC50 [4] [nM] | dopamine D2 receptor in vitro functional activity/potency (in words) [3] | in vivo functional potency (in words) ([5]; rat, in vivo) |
| --- | --- | --- | --- | --- | --- | --- | --- | --- | --- | --- | --- | --- | --- |
| 9770 | 21 | 468 | > 17000 | 0.589 | > 10000 | – | – | – | CCCN(CCOC1CC1)[C@H]1CCc2c(O)cccc2C1 [Example 17] | 0.009 | – | – | – |
| – | – | – | – | – | – | – | – | – | CCCN(CCC)[C@H]1CCc2c(ccc(O)c2O)C1 [Example 40, (S)-5,6-dihydroxy-2-(di-n-propyl)aminotetralin, reference compound] | 0.009 | 12.5 | – | – |
| – | – | – | – | – | – | – | – | – | CCCN(CCOC(C)C)[C@H]1CCc2c(ccc3oc(=O)oc23)C1 [Example 38, (S)-5,6,7,8-Tetrahydro-6-[[2-(1-methylethoxy)ethyl]-propylamino]-1,2-naphthalenediol, cyclic carbonate, hydrochloride] | 0.005 | – | – | – |
| 4680 | 36 | 129 | 186 | 0.794 | 148 | – | – | – | CCCOCCN(CCC)[C@H]1CCc2c(ccc(O)c2O)C1 [Example 7, (S)-5,6,7,8-tetrahydro-6-[[2-(propoxy)ethyl]propylamino]-1,2-naphthalenediol] | 0.002 | – | – | – |
| 4570 | 40 | 115 | 1020 | 0.24 | 245 | – | – | – | CCCN(CCOC(C)CC)[C@H]1CCc2c(ccc(O)c2O)C1 (some centres unmarked) [Example 5] | 0.006 | – | – | – |
| 2450 | 46 | 54 | 1000 | 0.093 | 93.3 | – | – | – | CCCCCOCCN(CCC)[C@H]1CCc2c(ccc(O)c2O)C1 [Example 10] | 0.030 | – | – | – |
| 1100 | 1 | 1100 | 118 | 0.141 | 16.6 | – | – | – | CCCN(CC1CCOC1)[C@H]1CCc2c(ccc(O)c2O)C1 (some centres unmarked) [Example 15] | 0.009 | – | – | – |
| 6310 | 20 | 316 | 45 | 0.417 | 18.6 | – | – | – | CCCN(CCOCC)[C@H]1CCc2c(ccc(O)c2O)C1 [Example 2, (S)-6-[[2-(ethoxy)ethyl]propylamino]-5,6,7,8-tetrahydro-1,2-naphthalenediol] | 0.004 | – | – | – |
| 16200 | 11 | 1510 | 1620 | 2.19 | 3550 | – | – | – | CCCN(CC1CCCO1)[C@H]1CCc2c(O)cccc2C1 (some centres unmarked) [Example 22] | 0.030 | – | – | – |
| 5620 | 21 | 263 | 158 | 0.776 | 123 | – | – | – | CCCN(CCC1CCOC1)[C@H]1CCc2c(O)cccc2C1 (some centres unmarked) [Example 24] | 0.020 | – | – | – |
| 1510 | 14 | 110 | 6310 | 0.275 | 1740 | – | – | – | CCCN(CCC1CCCO1)[C@H]1CCc2c(O)cccc2C1 (some centres unmarked) [Example 19] | 0.020 | – | – | – |
| 5490 | 224 | 25 | 1000 | 0.2 | 199 | – | – | – | CCCN(CCC1CCCCO1)[C@H]1CCc2c(ccc(O)c2O)C1 (some centres unmarked) [Example 12] | 0.030 | – | – | – |
| 8910 | 166 | 54 | 1620 | 0.089 | 144 | high affinity | high affinity, selectivity | high affinity, selectivity, specificity | CCCN(CCOC(C)(C)C)[C@H]1CCc2c(ccc(O)c2O)C1 [Example 9, (S)-6-[[2-(1,1-dimethylethoxy)ethyl]propylamino]-5,6,7,8-tetrahydro-1,2-naphthalenediol] | 0.004 | – | high affinity, selectivity, specificity, and functional potency | high in vivo functional potency |
| 4790 | 74 | 65 | 1860 | 0.105 | 195 | – | – | – | CCCN(CCOCC1CC1)[C@H]1CCc2c(ccc(O)c2O)C1 [Example 3] | 0.007 | – | – | – |
| 6610 | 57 | 117 | > 14100 | 0.708 | > 10000 | – | – | – | CCN(CCC1CCCO1)[C@H]1CCc2c(O)cccc2C1 (some centres unmarked) [Example 25] | – | – | – | – |
| 5750 | 113 | 51 | 914 | 0.102 | 93.3 | – | – | – | CCCN(CCCOC(C)C)[C@H]1CCc2c(ccc(O)c2O)C1 [Example 13] | 0.006 | – | – | – |
| – | – | – | – | – | – | – | – | – | CCCN(CCOC(C)C)[C@H]1CCc2c(ccc3c2OCO3)C1.Cl [Example 26, (S)-6,7,8,9-Tetrahydro-N-[2-(1-methylethoxy)ethyl]-N-propylnaphtho[1,2-d]-1,3-dioxol-7-amine, hydrochloride] | 0.030 | – | – | – |
| – | – | – | – | – | – | – | – | – | CCCN(CCOCC)[C@H]1CCc2c(ccc3c2OCO3)C1 [Example 27] | 0.100 | – | – | – |
| 7940 | 129 | 62 | > 19500 | 0.513 | > 10000 | – | – | – | CCCN(CCOC1CCCC1)[C@H]1CCc2c(O)cccc2C1 [Example 16] | 0.090 | – | – | – |
| 8910 | 45 | 200 | > 14800 | 0.676 | > 10000 | – | – | – | CCCN(CCOC1CCC1)[C@H]1CCc2c(O)cccc2C1 [Example 18] | 0.020 | – | – | – |
| – | – | – | – | – | – | – | – | – | CCCOCCN(CCC)[C@H]1CCc2c(ccc3c2OCO3)C1 [Example 28] | 0.100 | – | – | – |
| – | – | – | – | – | – | – | – | – | CCCN(CCOC(C)(C)C)[C@H]1CCc2c(ccc3c2OCO3)C1 [Example 29] | 0.040 | – | – | – |

| Compound | Ki [1] [nM] | Selectivity Ratio (D1 K1/D2 K1) [2] | Ki [2] [nM] | Specificity Ratio (a2 A50/D2 A50) [3] | EC50 [3] [nM] | EC50 [4, 6] [nM] | dopamine D2 receptor affinity (in words) [2] | D2 receptor selectivity (in words) ([2]; D2 vs. D1) | D2 receptor specificity (in words) ([3]; D2 vs. α2) | ED50 [5] [µmol/kg] | EC50 [4] [nM] | dopamine D2 receptor in vitro functional activity/potency (in words) [3] | in vivo functional potency (in words) ([5]; rat, in vivo) |
| --- | --- | --- | --- | --- | --- | --- | --- | --- | --- | --- | --- | --- | --- |
| CCCN(CCCOC)[C@H]1CCc2c(O)cccc2C1 [Example 41, (S)-5,6,7,8-tetrahydro-6-[(3-methoxypropyl)propylamino]-l-naphthalenol, reference compound] | 11000 | 14 | 790 | 257 | 0.91 | 234 | – | – | – | 0.020 | – | – | – |
| CCCN(CCOC(C)C)[C@H]1CCc2c(ccc(O)c2O)C1.Cl [Example 1, (S)-5,6,7,8-Tetrahydro-6-[[2-(1-methylethoxy)ethyl]-propylamino]-1,2-naphthalenediol, hydrochloride] | 7240 | 112 | 65 | 1480 | 0.148 | 218 | – | – | – | 0.004 | – | – | – |
